Data set [1] is described as follows: Pharmacokinetics of bendamustine dosed to rats, composition with SBECD and cetylpyridinium chloride (Example 11). The class given is in vivo. Conditions: female, Sprague-Dawley, rat, plasma, iv, i.v. 20 mg/kg, read-out: Concentration of bendamustine in rat plasma, Mean (SEM). How it is done: Control: 6 mg/mL bendamustine hydrochloride, 10.2 mg/mL of mannitol in 0.9% NaCl; dose of 20 mg/kg
Inventive Composition: 5 mg/g bendamustine hydrochloride, 40% w/w sodium sulfobutyl ether β-cyclodextrin, 0.5% cetylpyridinium chloride, 8.5 mg/g mannitol in water (produced following the procedure of Example 8); dose of 20 mg/kg.
Female Sprague-Dawley rats (250-350 g). The animals were kept three per cage with an air filter cover under light (12 h light/dark cycle, light on at 06 h00) and controlled temperature 22° C.+/−1° C. All manipulations with the animals were performed under a sterilized laminar hood. The animals had ad libitum access to Purina mouse chow and water. The animals were fasted overnight and anesthetized, before dosing. Dosing and Sampling: The inventive bendamustine composition and control were administered intravenously to rats in tail vein. After time intervals of 5, 15, 30, 45 min, 1, 1.5, 2 and 3 hrs post-injection, blood samples were collected. The rats were anesthetized by general inhalation of isoflurane. The blood samples were collected from the jugular vein with heparinized tube and kept on ice. Blood was immediately centrifuged, and plasma was separated. The plasma samples were immediately extracted. Sample Extraction and Analysis: The plasma samples 0.100 mL were transferred to plastic tubes. The samples were extracted with 0.400 mL of 100 mM HCl in acetonitrile while being shaken vigorously for 30 seconds. The samples were centrifuged at 10000 RPM for 5 minutes. The supernatant was separated. The samples were frozen in dry ice and kept at −80° C. until HPLC analysis. 20 microliter aliquots were injected into the HPLC for analysis. The HPLC Conditions: C18 reversed phase column 50×4.6 mm, Symmetry/Shield 3.5 micrometer Column temperature 30° C. Flow rate 1.5 mL/min Injection volume 20 microliters Fluorescence detection at wavelengths: excitation 327 nm, emission 420 nm Mobile phase: Buffer A: 5% acetonitrile 0.1% TFA Buffer B: 90% acetonitrile 0.1% TFA Run time: 10 min The improved pharmacokinetic profiles of bendamustine for tested composition versus the control is shown in Table 1 below.

Data set [2] in a line: Pharmacokinetics of bendamustine dosed to rats, composition with SBECD and PI2080 (Example 12). The class given is in vivo, Female Sprague-Dawley rats. Conditions: i.v. 10 mg/kg. How it is done:
Control: 2.5 mg/mL bendamustine hydrochloride, 4.25 mg/mL of mannitol in 0.9% NaCl; dose of 10 mg/kg
Inventive Composition: 2.5 mg/mL bendamustine hydrochloride, 40% w/w sodium sulfobutyl ether β-cyclodextrin, 1% PI2080, 4.3 mg/g mannitol in water (prepared according to the procedure set forth in Example 9); dose of 10 mg/kg.
Female Sprague-Dawley rats (250-350 g). The animals were kept three per cage with an air filter cover under light (12 h light/dark cycle, light on at 06 h00) and controlled temperature 22° C.+/−1° C. All manipulations with the animals were performed under a sterilized laminar hood. The animals had ad libitum access to Purina mouse chow and water. The animals were fasted overnight and anesthetized, before dosing. Dosing and Sampling: Inventive bendamustine composition and control were administered intravenously to rats in tail vein. Blood samples were collected after time intervals of 5, 15, 30, 45 min, 1, 1.5, 2 and 3 hrs post-injection, The rats were anesthetised by general inhalation of isoflurane. The blood samples were collected from the jugular vein with heparinized tube and kept on ice. The blood was immediately centrifuged, and plasma was separated. The plasma samples were immediately extracted. Sample Extraction and Analysis: The plasma samples 0.100 mL were transferred to plastic tubes. The samples were extracted with 0.400 mL of 100 mM HCl in acetonitrile while being shaken vigorously for 30 seconds. The samples were centrifuged at 10000 RPM for 5 minutes. The supernatant was separated. The samples were frozen in dry ice and kept at −80° C. until HPLC analysis. The aliquots of 20 microliters were injected into HPLC for analysis. The HPLC Conditions: C18 reversed phase column 50×4.6 mm, Symmetry/Shield 3.5 micrometer Column temperature 30° C. Flow rate 1.5 mL/min Injection volume 20 microliters Fluorescence detection at wavelengths: excitation 327 nm, emission 420 nm Mobile phase: Buffer A: 5% acetonitrile 0.1% TFA Buffer B: 90% acetonitrile 0.1% TFA Run time: 10 min The improved pharmacokinetic profiles of Bendamustine for tested inventive composition versus the control is shown in Table 2 below.

Each structure is given as a SMILES string.

On to `Cn1c(CCCC(=O)O)nc2cc(N(CCCl)CCCl)ccc21` [BM, 4-[5-[bis(2-chloroethyl)amino]-1-methylbenzimidazol-2-yl]butanoic acid], for which the concentration at 0.08 h is 12300 ng/mL in data set [1] (0.08 h post injection) and 6040 ng/mL in data set [2] (female, Sprague-Dawley, rat, plasma, iv, 0.08 h post injection, read-out: Concentration of bendamustine in rat plasma, Mean (SEM)). Moreover, the concentration at 0.25 h in data set [1] (0.25 h post injection) was determined as 7620 ng/mL; in data set [2] (female, Sprague-Dawley, rat, plasma, iv, 0.25 h post injection, read-out: Concentration of bendamustine in rat plasma, Mean (SEM)), 2430 ng/mL. Also, the concentration at 0.5 h is 3050 ng/mL in data set [1] (0.5 h post injection) and 520 ng/mL in data set [2] (female, Sprague-Dawley, rat, plasma, iv, 0.5 h post injection, read-out: Concentration of bendamustine in rat plasma, Mean (SEM)). For the same compound, the concentration at 0.75 h in data set [1] (0.75 h post injection) came out at 966 ng/mL; in data set [2] (female, Sprague-Dawley, rat, plasma, iv, 0.75 h post injection, read-out: Concentration of bendamustine in rat plasma, Mean (SEM)), 145 ng/mL. Besides, the concentration at 1 h in data set [1] (1 h post injection) came to 414 ng/mL. Also, the concentration at 1.5 h in data set [1] (1.5 h post injection) turned out to be 133 ng/mL; in data set [2] (female, Sprague-Dawley, rat, plasma, iv, 1.5 h post injection, read-out: Concentration of bendamustine in rat plasma, Mean (SEM)), 8 ng/mL. The concentration at 2 h in data set [1] (2 h post injection) came to 54 ng/mL; in data set [2] (female, Sprague-Dawley, rat, plasma, iv, 2 h post injection, read-out: Concentration of bendamustine in rat plasma, Mean (SEM)) it was 2 ng/mL. Besides, the concentration at 3 h in data set [1] (3 h post injection) stood at 9 ng/mL. The entries for the “Concentration of bendamustine in rat plasma, Mean (SEM)” value in data set [2] (1 h post injection) and in data set [2] (3 h post injection) were 48 (11) ng/mL and 0 (1) ng/mL, respectively.
